Experimental data published in patent publication US20240116985A1, “STAPLED PEPTIDES AND METHODS THEREOF” (priority 2020, published 2024).

These compounds were tested against T1, full-length beta-Catenin (Uniprot ID P35222) (Homo sapiens, UniProt P35222) (assay: Fluorescence polarization IC50 (beta-catenin / 5FAM-TCF4 10-53 competition)). Settings: fluorescence polarization; read-out: beta-Catenin FP IC50.
T1 construct: 10 nM full-length beta-Catenin (Uniprot ID P35222)
T1 sequence (P35222 1-781): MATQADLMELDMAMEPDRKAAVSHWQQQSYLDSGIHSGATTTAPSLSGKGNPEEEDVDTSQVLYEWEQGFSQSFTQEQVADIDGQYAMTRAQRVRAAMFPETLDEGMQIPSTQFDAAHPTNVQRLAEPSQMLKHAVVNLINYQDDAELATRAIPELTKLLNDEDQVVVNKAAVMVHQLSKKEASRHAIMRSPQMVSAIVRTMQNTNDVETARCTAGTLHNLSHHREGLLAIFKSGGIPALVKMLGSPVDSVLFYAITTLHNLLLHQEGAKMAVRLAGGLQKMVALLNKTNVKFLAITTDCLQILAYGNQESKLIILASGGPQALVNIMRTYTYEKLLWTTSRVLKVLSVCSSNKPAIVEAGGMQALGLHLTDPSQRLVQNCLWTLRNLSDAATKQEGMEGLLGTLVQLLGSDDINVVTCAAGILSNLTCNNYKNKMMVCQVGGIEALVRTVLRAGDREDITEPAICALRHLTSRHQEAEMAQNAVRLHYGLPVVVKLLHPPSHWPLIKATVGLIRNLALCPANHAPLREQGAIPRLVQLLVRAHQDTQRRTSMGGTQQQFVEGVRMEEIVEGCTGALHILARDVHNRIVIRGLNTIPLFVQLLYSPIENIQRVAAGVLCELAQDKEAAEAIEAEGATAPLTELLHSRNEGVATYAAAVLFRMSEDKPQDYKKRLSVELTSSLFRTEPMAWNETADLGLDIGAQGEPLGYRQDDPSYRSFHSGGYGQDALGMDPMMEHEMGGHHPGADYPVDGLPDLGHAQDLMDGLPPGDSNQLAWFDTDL
Type: binding

SMILES	IC50
CC(C)C[C@H](NC(=O)[C@]12CCN(C1)C(=O)OCCCC=CCCCC1(CCCC=CCCCC(=O)N3CCC[C@@]3(C)C(=O)N[C@@H](CC(=O)O)C(=O)N1)C(=O)N[C@@H](C)C(=O)N[C@@H](CC(=O)O)C(=O)N[C@@H](CC(=O)O)C(=O)N[C@@H](C)C(=O)N[C@@H](C)C(=O)N[C@@H](Cc1ccccc1)C(=O)N2)C(=O)N[C@@H](Cc1ccsc1)C(=O)N[C@@H](Cc1csc2ccccc12)C(=O)N[C@@H](CCC(N)=O)C(N)=O (stereo partly drawn) [I-2598, 5hexenyl-MePro-Asp-B5-Ala-Asp-Asp-Ala-Ala-Phe-PyrS2-Leu-3Thi-BztA-Gln-NH2]	1.35 µM
CC(C)C[C@H](NC(=O)[C@]12CCN(C1)C(=O)OCCCCCCCCC1(CCCCCCCCC(=O)N3CCC[C@@]3(C)C(=O)N[C@@H](CC(=O)O)C(=O)N1)C(=O)N[C@@H](C)C(=O)N[C@@H](CC(=O)O)C(=O)N[C@@H](CC(=O)O)C(=O)N[C@@H](C)C(=O)N[C@@H](C)C(=O)N[C@@H](Cc1ccccc1)C(=O)N2)C(=O)N[C@@H](Cc1ccsc1)C(=O)N[C@@H](Cc1csc2ccccc12)C(=O)N[C@@H](CCC(N)=O)C(N)=O (stereo partly drawn) [I-2600, 5hexenyl-MePro-Asp-B5-Ala-Asp-Asp-Ala-Ala-Phe-PyrS2-Leu-3Thi-BztA-Gln-NH2]	0.923 µM
CC(C)C[C@H](NC(=O)[C@]12CCN(C1)C(=O)OCCCCCCCCC1(CCCCCCCC(=O)N3CCC[C@@]3(C)C(=O)N[C@@H](CC(=O)O)C(=O)N1)C(=O)N[C@@H](C)C(=O)N[C@@H](CC(=O)O)C(=O)N[C@@H](CC(=O)O)C(=O)N[C@@H](C)C(=O)N[C@@H](C)C(=O)N[C@@H](Cc1ccccc1)C(=O)N2)C(=O)N[C@@H](Cc1ccsc1)C(=O)N[C@@H](Cc1csc2ccccc12)C(=O)N[C@@H](CCC(N)=O)C(N)=O (stereo partly drawn) [I-2601, 4pentenyl-MePro-Asp-B5-Ala-Asp-Asp-Ala-Ala-Phe-PyrS2-Leu-3Thi-BztA-Gln-NH2]	0.592 µM
CC(C)C[C@H](NC(=O)[C@]12CCN(C1)C(=O)OCCCC=CCCCC1(CCCC=CCCCC(=O)N3CCC[C@@]3(C)C(=O)N[C@@H](CC(=O)O)C(=O)N1)C(=O)N[C@@H](C)C(=O)N[C@@H](CC(=O)O)C(=O)N[C@@H](Cc1cccc(C(=O)O)c1)C(=O)N[C@@H](C)C(=O)N[C@@H](C)C(=O)N[C@@H](Cc1ccccc1)C(=O)N2)C(=O)N[C@@H](Cc1ccsc1)C(=O)N[C@@H](Cc1csc2ccccc12)C(=O)N[C@@H](CCC(N)=O)C(N)=O (stereo partly drawn) [I-2602, 5hexenyl-MePro-Asp-B5-Ala-Asp-3COOHF-Ala-Ala-Phe-PyrS2-Leu-3Thi-BztA-Gln-NH2]	8.22 µM
CC(C)C[C@H](NC(=O)[C@]12CCN(C1)C(=O)OCCCC=CCCCC1(CCCC=CCCC(=O)N3CCC[C@@]3(C)C(=O)N[C@@H](CC(=O)O)C(=O)N1)C(=O)N[C@@H](C)C(=O)N[C@@H](CC(=O)O)C(=O)N[C@@H](Cc1cccc(C(=O)O)c1)C(=O)N[C@@H](C)C(=O)N[C@@H](C)C(=O)N[C@@H](Cc1ccccc1)C(=O)N2)C(=O)N[C@@H](Cc1ccsc1)C(=O)N[C@@H](Cc1csc2ccccc12)C(=O)N[C@@H](CCC(N)=O)C(N)=O (stereo partly drawn) [I-2603, 4pentenyl-MePro-Asp-B5-Ala-Asp-3COOHF-Ala-Ala-Phe-PyrS2-Leu-3Thi-BztA-Gln-NH2]	0.767 µM

Next, values leading:

IC50	SMILES
1.12 µM	CC(C)C[C@H](NC(=O)[C@]12CCN(C1)C(=O)OCCCCCCCCC1(CCCCCCCCC(=O)N3CCC[C@@]3(C)C(=O)N[C@@H](CC(=O)O)C(=O)N1)C(=O)N[C@@H](C)C(=O)N[C@@H](CC(=O)O)C(=O)N[C@@H](Cc1cccc(C(=O)O)c1)C(=O)N[C@@H](C)C(=O)N[C@@H](C)C(=O)N[C@@H](Cc1ccccc1)C(=O)N2)C(=O)N[C@@H](Cc1ccsc1)C(=O)N[C@@H](Cc1csc2ccccc12)C(=O)N[C@@H](CCC(N)=O)C(N)=O (stereo partly drawn) [I-2604, 5hexenyl-MePro-Asp-B5-Ala-Asp-3COOHF-Ala-Ala-Phe-PyrS2-Leu-3Thi-BztA-Gln-NH2]
0.608 µM	CC(C)C[C@H](NC(=O)[C@]12CCN(C1)C(=O)OCCCCCCCCC1(CCCCCCCC(=O)N3CCC[C@@]3(C)C(=O)N[C@@H](CC(=O)O)C(=O)N1)C(=O)N[C@@H](C)C(=O)N[C@@H](CC(=O)O)C(=O)N[C@@H](Cc1cccc(C(=O)O)c1)C(=O)N[C@@H](C)C(=O)N[C@@H](C)C(=O)N[C@@H](Cc1ccccc1)C(=O)N2)C(=O)N[C@@H](Cc1ccsc1)C(=O)N[C@@H](Cc1csc2ccccc12)C(=O)N[C@@H](CCC(N)=O)C(N)=O (stereo partly drawn) [I-2605, 4pentenyl-MePro-Asp-B5-Ala-Asp-3COOHF-Ala-Ala-Phe-PyrS2-Leu-3Thi-BztA-Gln-NH2]
0.251 µM	CC(C)C[C@H](NC(=O)[C@]12CCN(C1)C(=O)OCCCCCCCCC1(CCCCCCC(=O)N3CCC[C@@]3(C)C(=O)N[C@@H](CC(=O)O)C(=O)N1)C(=O)N[C@@H](C)C(=O)N[C@@H](CC(=O)O)C(=O)N[C@@H](CC(=O)O)C(=O)N[C@@H](C)C(=O)N[C@@H](C)C(=O)N[C@@H](Cc1ccccc1)C(=O)N2)C(=O)N[C@@H](Cc1ccsc1)C(=O)N[C@@H](Cc1csc2ccccc12)C(=O)N[C@@H](CCC(N)=O)C(N)=O (stereo partly drawn) [I-2608, 3butenyl-MePro-Asp-B5-Ala-Asp-Asp-Ala-Ala-Phe-PyrS2-Leu-3Thi-BztA-Gln-NH2]
0.215 µM	CC(=O)N1CCC[C@]12CC=CCCCC1(CCCC=CCCCOC(=O)N3CC(C(=O)N[C@@H](Cc4ccccc4C(F)(F)F)C(=O)N[C@@H](Cc4csc5ccccc45)C(=O)N[C@@H](CCC(N)=O)C(N)=O)(C3)NC(=O)[C@H](CC(C)C)NC(=O)[C@H](Cc3ccccc3)NC(=O)[C@H](C)NC(=O)[C@H](C)NC(=O)[C@H](Cc3cccc(C(=O)O)c3)NC(=O)[C@H](CC(=O)O)NC1=O)NC(=O)[C@H](CC(C)(C)C)NC(=O)[C@H](CC(=O)O)NC2=O (stereo partly drawn) [I-2610, Ac-PL3-Asp-Npg-B5-Asp-3COOHF-Ala-Ala-Phe-Leu-Az2-2F3MeF-BztA-Gln-NH2]
0.188 µM	CC(=O)N1CCC[C@]12CC=CCCCC1(CCCC=CCCCCOC(=O)N3CC(C(=O)N[C@@H](Cc4ccccc4C(F)(F)F)C(=O)N[C@@H](Cc4csc5ccccc45)C(=O)N[C@@H](CCC(N)=O)C(N)=O)(C3)NC(=O)[C@H](CC(C)C)NC(=O)[C@H](Cc3ccccc3)NC(=O)[C@H](C)NC(=O)[C@H](C)NC(=O)[C@H](Cc3cccc(C(=O)O)c3)NC(=O)[C@H](CC(=O)O)NC1=O)NC(=O)[C@H](CC(C)(C)C)NC(=O)[C@H](CC(=O)O)NC2=O (stereo partly drawn) [I-2611, Ac-PL3-Asp-Npg-B5-Asp-3COOHF-Ala-Ala-Phe-Leu-Az3-2F3MeF-BztA-Gln-NH2]
0.085 µM	CC(=O)N1CCC[C@]12CC=CCCCC1(CCCC=CCCCCOC(=O)N3CC(C(=O)N[C@@H](Cc4ccsc4)C(=O)N[C@@H](Cc4csc5ccccc45)C(=O)N[C@@H](CCC(N)=O)C(N)=O)(C3)NC(=O)[C@H](CC(C)C)NC(=O)[C@H](Cc3ccccc3)NC(=O)[C@H](C)NC(=O)[C@H](C)NC(=O)[C@H](Cc3cccc(C(=O)O)c3)NC(=O)[C@H](CC(=O)O)NC1=O)NC(=O)[C@H](CC(C)(C)C)NC(=O)[C@H](CC(=O)O)NC2=O (stereo partly drawn) [I-2612, Ac-PL3-Asp-Npg-B5-Asp-3COOHF-Ala-Ala-Phe-Leu-Az3-3Thi-BztA-Gln-NH2]
0.183 µM	CC(=O)N1CCC[C@]12CC=CCCCC1(CCCC=CCCCOC(=O)N3CC(C(=O)N[C@@H](Cc4ccccc4C(F)(F)F)C(=O)N[C@@H](Cc4csc5ccccc45)C(=O)N[C@@H](CCC(N)=O)C(N)=O)(C3)NC(=O)[C@H](CC(C)C)NC(=O)[C@H](Cc3ccccc3)NC(=O)[C@H](C)NC(=O)C(C)(C)NC(=O)[C@H](Cc3cccc(C(=O)O)c3)NC(=O)[C@H](CC(=O)O)NC1=O)NC(=O)[C@H](CC(C)(C)C)NC(=O)[C@H](CC(=O)O)NC2=O (stereo partly drawn) [I-2613, Ac-PL3-Asp-Npg-B5-Asp-3COOHF-Aib-Ala-Phe-Leu-Az2-2F3MeF-BztA-Gln-NH2]
